Results on 40 compounds are retold here after PubChem BioAssay AID1996.

Converted amounts (≈) assume the structure as drawn.

For this series the following is noted: buffer; pH 7.4; 200.0 µM.
Regarding `CC(=O)C1=C(O)C(=O)N(c2cccnc2)C1c1cccc([N+](=O)[O-])c1` (stereo not given), the solubility (kinetic) (usually the concentration staying in solution when a stock, usually in DMSO, is diluted into the medium) was > 50.9 µg/mL.

As for `Cc1nc(-c2ccccc2)sc1C(=O)Nc1ccccc1F`, the solubility (kinetic) is 1.8 µg/mL (≈ 5.76 µM).

In the case of `CC12C(=O)N(c3ccccc3)C(=O)C1C(c1ccccc1)N1CCCN12` (stereo not given), the solubility (kinetic) is > 52.1 µg/mL.

In the case of `Cc1ccc(CN2CCN(c3ccccc3)CC2)o1.O=C(O)C(=O)O`, the solubility (kinetic) is 49.1 µg/mL.

Regarding `COc1ccc(C(=O)NCC(=O)N/N=C(\C)c2ccco2)cc1OC`, the kinetic solubility is > 51.8 µg/mL.

In the case of `Cc1cc2cc(CNC(=S)NC3CCCCC3)ccc2[nH]1`, the kinetic solubility worked out at 12.5 µg/mL (≈ 41.5 µM).

Turning to `NC(=O)c1ccsc1NC(=O)COC(=O)c1ccccn1`, the kinetic solubility is > 45.8 µg/mL.

Regarding `CCCCNC(=O)N1CCN(c2ccnc3cc(Cl)ccc23)CC1`, the kinetic solubility is > 52 µg/mL.

Regarding `O=C(OCCCN1CCOCC1)c1ccc(O)c(O)c1`, the solubility (kinetic) was > 42.2 µg/mL.

Regarding `CCN1C(C(=O)Nc2cc(C)on2)=C(O)c2ccccc2S1(=O)=O`, the kinetic solubility is > 52.4 µg/mL.

For `Cc1c(N=Cc2cc3c(cc2[N+](=O)[O-])OCO3)cccc1[N+](=O)[O-]`, the kinetic solubility came to 6.5 µg/mL (≈ 19.7 µM).

`O=C(COC(=O)c1cccnc1Cl)NC1CCCCC1`: the kinetic solubility was > 44.5 µg/mL.

Take `CC1(C)CC(NC(=O)N2c3ccccc3Sc3ccccc32)CC(C)(C)N1`: the solubility (kinetic) was 43.1 µg/mL (≈ 113 µM).

In the case of `O=C(O)c1cccnc1SCc1ccccc1Cl`, the solubility (kinetic) is > 42 µg/mL.

In turn, `CC1(C)C(=O)Nc2ccccc2N1C(=O)COc1ccccc1C#N` came in with a kinetic solubility of 21.5 µg/mL (≈ 64.1 µM).

Compound `Cc1cc(SCC(=O)NC2CCCC2)nc2ccccc12` yielded a solubility (kinetic) of 8.8 µg/mL (≈ 29.3 µM).

`Cc1cc(NC(=O)CCc2ccc(-c3ccccc3)o2)no1` gave a kinetic solubility of 2.4 µg/mL (≈ 8.1 µM).

`Oc1ccc2ccccc2c1C=Nc1ccccc1`: the kinetic solubility was < 0.5 µg/mL.

On to `O=C(CN1C(=O)c2ccccc2C1=O)NCc1ccc(C(=O)O)cc1`, for which the solubility (kinetic) was > 50.7 µg/mL.

For the compound `COC(=O)c1cn(C(=O)c2cccc3ccccc23)c2ccccc12`, the kinetic solubility is < 0.7 µg/mL.

On to `O=C(N1CCOCC1)N1CCc2ccccc21`, for which the kinetic solubility amounted to 34.8 µg/mL (≈ 150 µM).

As to `O=C(O)C1C2C=CC(O2)C1C(=O)Nc1cccc(C(F)(F)F)c1` (stereo not given), the solubility (kinetic) is > 49.1 µg/mL.

As for `CCCC(CNC(=O)COC(=O)C1=NNC(=O)CC1)c1ccc(Cl)cc1Cl` (stereo not given), the kinetic solubility was > 62.1 µg/mL.

For the compound `CCCN(CCC)C(=S)NC1CC2C=CC1C2` (stereo not given), the solubility (kinetic) is > 37.9 µg/mL.

Consider `COCCNC(=O)c1ccc2c(c1)CCN2S(C)(=O)=O`, for which the solubility (kinetic) was determined as 44.7 µg/mL (≈ 150 µM).

For `Cc1c[n+](CC(=O)c2ccccc2)c(C)cn1.[Br-]`, the kinetic solubility worked out at 27 µg/mL.

Compound `COc1ccccc1CNC(=O)COC(=O)c1cc(C)nc2ccccc12` had a kinetic solubility of 14.6 µg/mL (≈ 40.1 µM).

Regarding `CC(C)c1ccc(NC(=S)NN2CCN(C)CC2)cc1`, the kinetic solubility was > 43.9 µg/mL.

Regarding `O=C(COC(=O)c1cnccn1)c1cccc([N+](=O)[O-])c1`, the solubility (kinetic) is > 43.1 µg/mL.

For `Cc1ccc([N+](=O)[O-])cc1NC(=O)c1cccnc1`, the kinetic solubility is > 38.6 µg/mL.

For the compound `CCN1C(=O)N(CC)C2C1N(CO)C(=O)N2CO` (stereo not given), the kinetic solubility is > 38.7 µg/mL.

As to `CN1C(=O)N(C)C(c2cccc([N+](=O)[O-])c2)C2=C1CCCC2=O` (stereo not given), the solubility (kinetic) was > 47.3 µg/mL.

Turning to `COc1ccc(CCN2CC(C(=O)NCC(c3ccccc3)N(C)C)CC2=O)cc1OC` (stereo not given), the kinetic solubility is > 65.9 µg/mL.

Compound `CCOc1ccc(NC(=S)NC(=O)C2CCCC2)cc1` displayed a solubility (kinetic) of 1 µg/mL (≈ 3.42 µM).

Compound `COc1cc2ncnc(NCc3cccc(F)c3F)c2cc1OC` registered a kinetic solubility of 10.7 µg/mL (≈ 32.3 µM).

In turn, `Cc1onc(-c2ccccc2)c1NC(=O)Nc1ccc(OC(F)F)cc1` gave a solubility (kinetic) of 7 µg/mL (≈ 19.5 µM).

Regarding `COc1cccc(NCc2cc(=O)oc3cc(C)c(C(C)C)cc23)c1`, the solubility (kinetic) was determined as 2.8 µg/mL (≈ 8.3 µM).

Turning to `CN(C(=O)C1CCC(=O)N(C2CC2)C1)C1CCCCC1` (stereo not given), the kinetic solubility is > 41.8 µg/mL.

Take `COc1ccc(C/C(N)=N/OC(=O)c2ccco2)cc1OC`: the solubility (kinetic) is > 45.6 µg/mL.

As to `COc1ccc(-c2[nH]ncc2CNC(C)Cc2cccc(C)n2)cc1F` (stereo not given), the kinetic solubility is > 53.2 µg/mL.
